{"source": "patent US20050080102A1", "about": "“Compound and uses thereof” (priority 2002, published 2005)", "format_in_all_cases": "biochemical", "key": {"[1]": {"test_system": "caspase-3 (procaspase-3 cleavage)", "experiment": "Caspase-3 activation reconstituted with HeLa S-100 fractions (Q-ft, Q30, Q100) and purified/recombinant proteins", "source_text": "To study the mechanism, HeLa cell S-100 extracts were fractionated using an anion exchange column. […] The first fraction, Q-ft, flew through the column and contained cytochrome c (Liu et al., Cell 86:147 (1996)). The second fraction, Q30, was eluted with 0.3 M NaCl and contained Apaf-1 (Zou et al., Cell 90:405 (1997)) and procaspase-9 (Li et al., Cell 91:479 (1997)). The third fraction, Q100, was eluted with 1 M NaCl. These three fractions were then used in different combinations to search for proteins that might mediate the PETCM effect.\nThe inhibitory activity was assayed by adding column fractions to the mixture of Q30/cytochrome c/PHAP/dATP.\nTen ml of HeLa S-100 (˜60 mg total protein) was loaded on a 1-ml HiTrap Q column (Pharmacia) pre-equilibrated with Buffer A (i.e., 20 mM Hepes-KOH, pH7.5, 10 mM KCl, 1.5 mM Mg Cl2, 1 mM sodium EDTA and 1 mM sodium EGTA, 1 mM dithiothreitol, and 0.1 mM PMSF). The flowthrough (Q-ft) was collected. After being washed with 10-ml of Buffer A, the column was eluted with 10-ml of Buffer A containing 300 mM NaCl, and the eluted protein peak ([…]) was collected (Q30). Subsequently, the column was eluted with Buffer A containing 1 M NaCl, and the protein peak (−3 ml) was collected and dialyzed for overnight (Q100)."}, "caspase-3 [2]": {"test_system": "caspase-3", "experiment": "Caspase-3 activation in HeLa cell lysate/S-100 (Ac-DEVD-pNA cleavage, HTS)", "method": "Other means of measuring caspoase-3 activation are also encompassed herein and are readily known to those of ordinary skill in the art.\nWith respect to Example I, the high throughput screening (HTS) was essentially a cell-lysate assay in which the endpoint, activation of caspase-3, was monitored by the cleavage of a calorimetric substrate. HeLa cell lysate was prepared by Cellex Bioscience (Minneapolis, Minn.). This lysate was thawed and centrifuged before use (15K rpm in a JA20 Beckman rotor, Fullerton, Calif.). […] The plates were allowed to incubate for three to four hours. When 90% of the Ac-DEVD-pNA (Bachem L1945) was converted by the activated capsase-3 in the control plate, the screening plates were read again at 390 nm. The change in absorbency was scaled to the fully-activated control (cytochrome c) and the negative control (no compound)."}, "caspase-3 [3]": {"test_system": "caspase-3", "experiment": "Caspase-3 activation in extracts from RNAi treated HeLa cells", "settings": "extracts from control RNAi treated-cells (FIG. 6D)", "source_text": "(SEQ ID NO:7) and […] (SEQ ID NO:9) and […]"}, "[4]": {"test_system": "apoptosome (Apaf-1/caspase-9)", "experiment": "Apoptosome formation and caspase-9 activation in reconstituted system (Q30, cytochrome c, dATP)", "method": "FIG. 5 illustrates regulation of apoptosome by ProT and PHAP. FIG. 5(A) illustrates that PHAP accelerates caspase-3 activation after PETCM antagonizes the inhibitory activity of ProT. FIG. 5(B) illustrates that ProT inhibits apoptosome formation, and PETCM can antagonize the inhibitory activity. FIG. 5(C) illustrates that PHAP enhances caspase-9 activation. Apoptosome formation was measured as described in FIG. 1.\nSubsequently, regulation of apoptosome by these players was tested. […] PETCM promotes caspase-3 activation by removing the inhibition of ProT on apoptosome formation, allowing PHAPs to stimulate apoptosome activity."}, "Apaf-1 (apoptosome)": {"test_system": "Apaf-1 (apoptosome)", "experiment": "Apoptosome formation in HeLa cell S-100, gel-filtration chromatography and Western blot against Apaf-1", "method": "In order to find out how this small molecule ([…]) promotes activation of caspase-3, apoptosome formation was analyzed using gel-filtration chromatography followed by Western blot analysis against Apaf-1 (Zou H et al., Cell 90:405-413, 1997). Other methods known to those of ordinary skill in the art may also be used for such an analysis."}, "[5]": {"test_system": "extracts from human tumor cells (caspase activation)", "experiment": "Response of extracts from a battery of human tumor cells to PETCM", "settings": "colon cancer, prostate cancer, promyelocytic leukemia, T cell leukemia, bone marrow leukemia, malignant melanoma, lymphoma, glioblastoma cells", "method": "Extracts from a battery of human tumor cells were also screened for their response to PETCM. It was determined that many human cancer lines, including colon cancer, prostate cancer, promyelocytic leukemia, T cell leukemia, bone marrow leukemia, malignant melanoma, lymphoma, and glioblastoma cells were responsive. […] PETCM and the PETCM-stimulated caspase activation pathway are therefore of fundamental and clinical significance with respect to malignant mammalian cells. Thus, the present invention encompasses a method of stimulating caspase activity in malignant cells comprising exposing said cells to PETCM or administering PETCM to said cells."}}}
{"compound": "OC(Cc1ccncc1)C(Cl)(Cl)Cl", "note": "(stereo not drawn) [PETCM, alpha-(trichloromethyl)-4-Pyridineethanol]", "values": [{"measurement": "reversal of Q100 suppression of PHAP stimulatory activity", "setting": "[1]; PHAP with Q100 added back (FIG. 4A, lanes 5-6)", "result": "the suppression was reversed by the addition of PETCM"}, {"measurement": "caspase-3 activation", "setting": "[1]; Q30, cytochrome c, 10 μM dATP, PHAPI, ProT, with PETCM (FIG. 5A, lane 4)", "result": "the inhibitory effect of ProT was reversed"}, {"measurement": "caspase-3 activation", "setting": "[1]; Q-ft + Q30 + Q100, 0.2 mM PETCM with 10 μM dATP (lane 5)", "result": "caspase-3 activation was observed at 10 μM dATP"}, {"measurement": "caspase-3 activation", "setting": "[1]; Q-ft + Q30 + Q100, PETCM, dATP completely omitted (lane 4)", "result": "No caspase-3 activation was seen"}, {"measurement": "efficiency in activating caspase-3 compared with dATP", "setting": "caspase-3 [2]; 0.2 mM PETCM vs 1.0 mM dATP", "result": "more efficient in activating caspase-3 than 1.0 mM dATP"}, {"measurement": "DEVD activity of HeLa S-100", "setting": "caspase-3 [2]; FIG. 1(B), increasing amounts of PETCM", "result": "stimulates DEVD activity of HeLa S-100 in a dose-dependent manner"}, {"measurement": "caspase-3 activation in extracts, PETCM requirement", "setting": "caspase-3 [3]", "result": "responsive to PETCM"}, {"measurement": "apoptosome formation", "setting": "[4]; FIG. 5B, ProT plus PETCM", "result": "relieved the blockage"}, {"measurement": "efficiency of apoptosome formation compared with dATP", "setting": "Apaf-1 (apoptosome); 0.2 mM PETCM vs 1 mM dATP", "result": "better than 1 mM dATP"}, {"measurement": "apoptosome formation (Apaf-1 shift)", "setting": "Apaf-1 (apoptosome); S-100 incubated with 0.2 mM PETCM", "result": "Apaf-1 was also shifted to the position of apoptosome"}, {"measurement": "response of human cancer line extracts to PETCM", "setting": "[5]", "result": "responsive"}]}
{"compound": "Nc1ncnc2c1ncn2[C@H]1C[C@H](O)[C@@H](COP(=O)(O)OP(=O)(O)OP(=O)(O)O)O1", "note": "[dATP, 2′-deoxyadenosine-5′-triphosphate, reference compound]", "values": [{"measurement": "caspase-3 activation", "setting": "[1]; Q-ft + Q30 + Q100, 10 μM dATP (lane 3)", "result": "little caspase-3 activation was observed"}, {"measurement": "caspase-3 activation", "setting": "[1]; Q-ft + Q30 + Q100, 1 mM dATP (lane 2)", "result": "robust caspase-3 activation"}, {"measurement": "apoptosome formation (Apaf-1 shift)", "setting": "Apaf-1 (apoptosome); S-100 incubated with 1 mM dATP", "result": "most of the Apaf-1 was shifted to the size of ˜1 million Dalton"}]}
{"compound": "PHAPI: recombinant His-tagged PHAPI, putative tumor suppressor protein that stimulates caspase activation", "values": [{"measurement": "caspase-3 activation", "setting": "[1]; Q30 fraction plus cytochrome c and 10 μM dATP (FIG. 5A, lane 2)", "result": "stimulated caspase-3 activation"}, {"measurement": "apoptosome formation", "setting": "[4]; presence of PHAPI", "result": "did not affect the efficiency of apoptosome formation"}, {"measurement": "caspase-9 activation", "setting": "[4]; presence of PHAPI (FIG. 5C)", "result": "more activated caspase-9 was observed"}]}
